The values below come from patent US10464896B2, “Efflux-pump inhibitors and therapeutic uses thereof” (Basilea Pharmaceutica International AG, priority 2015, dated 2019).

In one assay the test system is E. coli ATCC25922. The experiment in a line: Antibacterial activity in combination with minocycline (growth inhibition). In kind it is cell-based. The conditions noted are these: Escherichia coli, minocycline 0.25 μg/mL, OD625 23 h minus 1 h, read-out: residual growth of E. coli ATCC25922 (% of uninhibited control) with minocycline; for activity at 25 µM: ATCC25922, compound at 25 μM; for activity at 50 µM: ATCC25922, compound at 50 μM. The procedure, abridged:
(§1)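 Test compound combined with fixed subinhibitory partner antibiotic: linezolid 128 μg/mL for either strain, minocycline 0.25 μg/mL (E. coli) or 8 μg/mL (P. aeruginosa), in caMHB shaken at 37 °C. Residual growth as % of inhibitor-free control, from OD625 at 23 h minus 1 h.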

Another assay relates to P. aeruginosa PAO1. The description is as above. The assay is classed as cell-based. The conditions noted are these: Pseudomonas aeruginosa, PAO1, compound at 50 μM; minocycline 8 μg/mL; OD625 23 h minus 1 h; read-out: residual growth of P. aeruginosa PAO1 (% of uninhibited control) with minocycline. The procedure, abridged:
as §1

The structures appear in SMILES notation. Bounds are passed on as bounds.

Consider `Clc1ccc(Oc2ccc(CNCC3CCNC3)cc2)c(Br)c1` (centres unmarked) [Example 82], for which the activity at 25 µM in the assay with E. coli ATCC25922 was at most 10%. Also, the activity at 50 µM in the assay with P. aeruginosa PAO1 is at most 50%.

Take `Clc1ccc(COc2cccc(CNCC3CNC3)c2)c(Cl)c1` [Example 177]: the activity at 25 µM with E. coli ATCC25922 was at most 10%. In the assay with P. aeruginosa PAO1, the activity at 50 µM was at most 50%.

`C=CCOc1cc(/C=C/c2cnccc2C#N)cc(CNCC2CCNC2)c1` (centres unmarked) [Example 316]: the activity at 25 µM in the assay on E. coli ATCC25922 is at most 10%. Further, the activity at 50 µM in the assay on P. aeruginosa PAO1 was at most 50%. With `COCc1cc(CNCC2CNC2)cc(OCc2ccc(Cl)cc2Br)c1` [Example 124], the activity at 25 µM with E. coli ATCC25922 was at most 10%. The activity at 50 µM in the assay with P. aeruginosa PAO1 was at most 50%. `C=CCOc1cc(/C=C/c2ccc(OC)cc2OC)cc(CNCC2CNC2)c1` [Example 323]: the activity at 25 µM in the assay on E. coli ATCC25922 was at most 10%. Also, the activity at 50 µM with P. aeruginosa PAO1 was at most 50%.

With `C[N+]1(C)CC(OCc2cc(CNCC3CNC3)cc(OCc3ccc(Cl)cc3Br)c2)CC1C(=O)O` (centres unmarked) [Example 288], the activity at 50 µM in the assay with E. coli ATCC25922 and with P. aeruginosa PAO1 was at most 50% in each case. Regarding `C=CCOc1cc(/C=C/c2ccc(Cl)cc2Br)cc(C(=O)NCC(=O)NCC2CNC2)c1` [Example 445], the activity at 25 µM in the assay on E. coli ATCC25922 is at most 10%. The activity at 50 µM in the assay on P. aeruginosa PAO1 was at most 50%. In the case of `C=CCOc1cc(/C=C/c2ccsc2)cc(CNCC2CCNC2)c1` (centres unmarked) [Example 320], the activity at 25 µM in the assay on E. coli ATCC25922 is at most 10%. For the same compound, in the assay with P. aeruginosa PAO1, the activity at 50 µM is at most 50%. As for `Clc1ccc(Oc2ccccc2CNCC2CNC2)c(Br)c1` [Example 89], the activity at 50 µM with E. coli ATCC25922 and in the assay with P. aeruginosa PAO1 was at most 50% in each case. Regarding `CC(C)(C)c1ccc(COc2cccc(CNC3CCNCC3)c2)cc1` [Example 223], in the assay on E. coli ATCC25922, the activity at 25 µM was at most 10%. The activity at 50 µM with P. aeruginosa PAO1 was at most 50%. Consider `CC(C)(C)c1ccc(COc2ccc(CNCC3CCNCC3)cc2)cc1` [Example 57], for which the activity at 25 µM in the assay on E. coli ATCC25922 is at most 10%. For the same compound, the activity at 50 µM in the assay with P. aeruginosa PAO1 is at most 50%. For `Ic1cccc(COc2cccc(CNCC3CNC3)c2)c1` [Example 219] the same measures were at most 10% and at most 50%. In the case of `C=CCOc1cc(/C=C/c2ccccc2OC)cc(CNCC2CNC2)c1` [Example 285], the activity at 25 µM in the assay with E. coli ATCC25922 was at most 10%. Further, the activity at 50 µM with P. aeruginosa PAO1 is at most 50%. The corresponding values for `Clc1ccc(COCc2cccc(CNCC3CNC3)c2)c(Br)c1` [Example 173, N-(azetidin-3-ylmethyl)-1-[3-[(2-bromo-4-chloro-phenyl)methoxymethyl]phenyl]methanamine] are at most 10% and at most 50%. For `N#Cc1ccc(/C=C/c2cccc(CNCC3CCNC3)c2)c(C(F)(F)F)c1` (centres unmarked) [Example 314] the same measures were at most 10% and at most 50%.

In the case of `COc1cc(C#N)ccc1COc1cccc(CNCC2CNC2)c1` [Example 26], the activity at 50 µM in the assay on E. coli ATCC25922 and with P. aeruginosa PAO1 was at most 50% throughout. Take `Clc1ccc(NCc2cccc(CNCC3CNC3)c2)c(Br)c1` [Example 170]: in the assay on E. coli ATCC25922, the activity at 25 µM was at most 10%. The activity at 50 µM with P. aeruginosa PAO1 was at most 50%. For `CC(C)(c1ccccc1)c1ccc(OCCNCC2CNC2)cc1` [Example 50], the activity at 50 µM in the assay on E. coli ATCC25922 and with P. aeruginosa PAO1 was at most 50% each time. As for `CC(C)(C)c1ccc(COc2cccc(CNCC3CNC3)c2)cc1` [Example 222], in the assay on E. coli ATCC25922, the activity at 25 µM is at most 10%. Also, the activity at 50 µM in the assay with P. aeruginosa PAO1 is at most 50%. Turning to `C=CCOc1cc(/C=C/c2cccc(OC)c2)cc(CNCC2CNC2)c1` [Example 276], in the assay on E. coli ATCC25922, the activity at 25 µM is at most 10%. Moreover, the activity at 50 µM in the assay on P. aeruginosa PAO1 was at most 50%. The corresponding values for `Ic1cccc(COc2cccc(CNCC3CCNC3)c2)c1` (centres unmarked) [Example 221] are at most 10% and at most 50%.

With `COC(=O)c1ccc(COc2ccc(CNCC3CNC3)cc2)c(Br)c1` [Example 87], the activity at 50 µM with E. coli ATCC25922 and in the assay on P. aeruginosa PAO1 was at most 50% throughout. Take `C=CCOc1cc(/C=C/c2cccs2)cc(CNCC2CCNC2)c1` (centres unmarked) [Example 319]: the activity at 25 µM in the assay on E. coli ATCC25922 was at most 10%. Further, in the assay on P. aeruginosa PAO1, the activity at 50 µM is at most 50%. For the compound `CC(C)COc1cc(CNCC2CCNC2)cc(CNC(=O)c2cccc(C(N)=O)c2)c1` (centres unmarked) [Example 477, N1-[[3-isobutoxy-5-[(pyrrolidin-3-ylmethylamino)methyl]phenyl]methyl]benzene-1,3-dicarboxamide], the activity at 50 µM in the assay with P. aeruginosa PAO1 is at most 50%. For the compound `FC(F)(F)c1cc(Cl)ccc1COc1cccc(CNCC2CNC2)c1` [Example 131], the activity at 25 µM in the assay on E. coli ATCC25922 is at most 10%. For the same compound, the activity at 50 µM with P. aeruginosa PAO1 is at most 50%. `C=CCOc1cc(/C=C/c2ccc(Cl)cc2Br)cc(CNC(=O)[C@H]2CCNC2)c1` [Example 366]: the activity at 25 µM with E. coli ATCC25922 was at most 10%. For the same compound, in the assay on P. aeruginosa PAO1, the activity at 50 µM is at most 50%. Take `C=CCOc1cc(CNCC2CCNC2)cc(CNC(=O)c2ccc(Cl)cc2Br)c1` (centres unmarked) [Example 349]: in the assay with P. aeruginosa PAO1, the activity at 50 µM is at most 50%.

On to `C=CCOc1cc(/C=C/c2cncc(C(N)=O)c2)cc(CNCC2CCNC2)c1` (centres unmarked) [Example 458], for which the activity at 50 µM with P. aeruginosa PAO1 was at most 50%. For the compound `Clc1ccc(COc2cccc(CCNCC3CNC3)c2)cc1` [Example 28], the activity at 25 µM with E. coli ATCC25922 was at most 10%. The activity at 50 µM with P. aeruginosa PAO1 was at most 50%. Regarding `Ic1ccc(COc2cccc(CNCC3CNC3)c2)cc1` [Example 206], the activity at 50 µM in the assay on P. aeruginosa PAO1 was at most 50%. As to `Clc1ccc(-c2cccc(CNCC3CCNC3)c2)c(Br)c1` (centres unmarked) [Example 74], in the assay on E. coli ATCC25922, the activity at 25 µM is at most 10%. The activity at 50 µM in the assay on P. aeruginosa PAO1 is at most 50%. Turning to `Brc1ccccc1COc1cccc(CNCC2CCNC2)c1` (centres unmarked) [Example 220], in the assay with P. aeruginosa PAO1, the activity at 50 µM was at most 50%.

In the case of `C=CCOc1cc(/C=C/c2nc(C(C)C)cs2)cc(CNCC2CCNC2)c1` (centres unmarked) [Example 353], the activity at 25 µM in the assay with E. coli ATCC25922 was at most 10%. The activity at 50 µM in the assay on P. aeruginosa PAO1 was at most 50%. In the case of `C(=C\c1cc(CNCC2CCNC2)cc(OCCN2CCOCC2)c1)/c1cccnc1` (centres unmarked) [Example 440], in the assay with P. aeruginosa PAO1, the activity at 50 µM is at most 50%.

With `C=CCOc1cc(/C=C/c2ccc(N)cc2)nc(CNCC2CCNC2)c1` (centres unmarked) [Example 475], the activity at 50 µM with E. coli ATCC25922 and with P. aeruginosa PAO1 was at most 50% each time.

`CC(C)COc1cc(/C=C/c2cccc(C(N)=O)c2)cc(CNCC2CCNC2)c1` (centres unmarked) [Example 331]: the activity at 25 µM in the assay with E. coli ATCC25922 was at most 10%. The activity at 50 µM in the assay with P. aeruginosa PAO1 is at most 50%. For `CC(C)(C)c1ccc(COc2cc(CNCC3CNC3)cc(OCCN3CCOCC3)c2)cc1` [Example 277] the same measures were at most 10% and at most 50%.
